{"source": "patent US20240350578A1", "about": "“FUNCTIONAL OUTCOMES AFTER SPINAL CORD INJURY” (priority 2023, published 2024)", "key": {"mixed neuronal culture": {"system": "mixed neuronal culture", "test": "Neuronal LDH release from a mixed neuronal culture following incubation with NMDA", "assay_type": "cell-based", "conditions": "peptide at 1 μM; mixed neuronal culture incubated with NMDA", "source_text": "(§1) Despite the neuroprotective effectiveness of early generation apoE-mimetic peptides based on the primary structure of the apoE receptor-binding region, several factors have limited clinical translation. Among those factors are peptide size and production cost. In order to address these barriers, we developed a library of smaller, 5-amino acid peptides by linearizing the polar face of the receptor-binding region, which preserves peptide function without maintaining any primary sequence homology with the apoE receptor-binding region itself. Overall, 13 peptides were screened using in vitro assays of neuroinflammation and neuroprotection from excitotoxicity. […] The resulting smaller, 5-amino acid peptide increases the translational and therapeutic potential by reducing production cost, improving pharmacokinetics, and increasing CNS bioavailability. A comparison of the neuroprotective activity of CN-105 with VR-53, another pentapeptide from this library, as measured by LPS-induced inflammation from TNFα is shown in FIG. 1."}, "mixed glial culture": {"system": "mixed glial culture", "test": "LPS-induced TNFα release from mixed glia cells in vitro", "assay_type": "cell-based", "source_text": "FIG. 1 is a graph showing the LPS-induced TNFα release from mixed glia cells in vitro from treatments with the CN-105 peptide and a comparison pentapeptide, VR-53.\nas §1"}, "[1]": {"system": "moderate, contusive SCI in adult, female C57BL/6J mice", "test": "Moderate, contusive SCI at T9: Basso Mouse Scale and von Frey hair test", "assay_type": "in vivo", "protocol": "FIG. 3 are graphs showing the locomotor performance recovery (via Basso Mouse Scale) in adult, female C57BL/6J mice after a moderate, incomplete SCI at the 9th thoracic vertebrae. The mice were subsequently treated with either 2.0 mg/kg CN-105 or a control vehicle intravenously 30 minutes post-injury, and then intraperitoneally (IP) at 3 hours, 6 hours, and then every 24 hours post-injury for three days. FIG. 3, panel A is a graph showing the number of consistent, weight-supported hindlimb steps at 21-days post-injury; and FIG. 3, panel B is a graph showing the number of animals capable of performing coordinated locomotion at 21-days post-injury.\nTo determine whether CN-105 can improve sensorimotor outcomes following a moderate, incomplete SCI, we conducted experiments in adult, female C57BL/6J mice. Here, we delivered CN-105 (2.0 mg/kg) or Vehicle at 30 minutes (intravenous, IV), at 3 hours and 6 hours (intraperitoneal, IP), then every 24 hours (IP) for three days following a moderate, contusive SCI at the level of the 9th thoracic vertebrae (T9). We tracked locomotor recovery using the Basso Mouse Scale (BMS) (Basso et al., 2006) and assessed for neuropathic pain or allodynia using the von Frey hair test."}, "[2]": {"system": "spinal cord transection in female Sprague-Dawley rats", "test": "Spinal cord transection T9/T10: acute cystometry and body weight", "assay_type": "in vivo", "protocol": "FIG. 5, panel A is a graph showing the number of non-voiding bladder contractions during acute cystometry in urethane-anesthetized, female Sprague-Dawley rats that received spinal cord transection between the 9th and 10th thoracic vertebrae, followed by CN-105 (2 mg/kg; sci_cn105) or 0.9% saline (sci_saline) treatments at 30 minutes and 3 hours post injury by IV injection, and then every 24 hours by IP for 7 days.\nFIG. 5, panel B is a graph showing the bladder capacity measured from a single-fill cystometric trial in urethane-anesthetized, female Sprague-Dawley rats that received spinal cord transection between the 9th and 10th thoracic vertebrae. Three baseline measurements were taken, and then three measurements were taken after administration of CN-105 (2 mg/kg; cn105).\nWe conducted terminal acute experiments in urethane-anesthetized, female Sprague-Dawley rats to quantify the chronic and acute effects of CN-105 on urodynamic function. Rats (n=6) received spinal cord transection (TX) at T9/T10 followed by CN-105 (2.0 mg/kg) or 0.9% saline treatment at 30 min and 3 hours (IV), then every 24 hours (IP) for 7 days post-injury. Collection of body weight and void volumes occurred 2-3 times daily during manual bladder expression throughout the duration of the study. For acute cystometry experiments, we placed a catheter into the bladder dome to measure pressure and an electromyography paddle on the EUS to measure muscle activity. During a single-fill cystometric trial, we infused the bladder with saline at a constant rate (54-84 ml/hr) until a distension-evoked bladder contraction voided urine or until overflow incontinence occurred. Following 3 baseline cystometric trials, we performed 3 trials after administration of CN-105."}, "acquired brain injury": {"system": "acquired brain injury", "conditions": "in vivo; cited from earlier work"}, "severe, contusive SCI": {"system": "severe, contusive SCI", "test": "Severe, contusive SCI: GFAP staining at injury epicenter", "assay_type": "in vivo, mouse", "conditions": "0.05 mg/kg before and after SCI; 14 days after severe SCI", "protocol": "FIG. 4 is a series of microscopy images showing the spinal cord sections at the injury epicenter stained for glial fibrillary acidic protein (GFAP) in a mouse after a severe SCI.\nIn a separate experiment, we delivered CN-105 (0.05 mg/kg) before and after SCI. To determine the effect of CN-105 treatment on neuropathology 14 days after severe SCI, we stained spinal cord sections at the injury epicenter for glial fibrillary acidic protein (GFAP; FIG. 4), which labels astrocytes, including those that form the glial scar around the injury. In this approach, spared tissue can be differentiated from the lesion core by the presence (spared tissue) or absence (lesion core) of GFAP staining (Duncan et al., 2018)."}, "[3]": {"test": "Pharmacokinetic evaluation of radiolabeled CN-105 in uninjured male CD-1 mice", "assay_type": "in vivo", "conditions": "single intravenous bolus 1.98 mg/kg", "protocol": "FIG. 2, panel A is a graph showing the concentration of CN-105 in uninjured, male CD-1 mice after a single intravenous injection bolus dose of 1.98 mg/kg. FIG. 2, panel B is a graph showing the CN-105 retention in the brain and the spinal cord, calculated by dividing the concentration at 24 hours (C24) by the peak concentration (Cmax), 24 hours after a single intravenous injection bolus dose of 1.98 mg/kg. FIG. 2, panel C is a graph showing the total CN-105 exposure in the brain and the spinal cord, calculated using the area under the curve (AUC), for 48 hours after a single intravenous injection bolus dose of 1.98 mg/kg.\nIn collaboration with XenoBiotic Laboratories, Inc., we conducted a pharmacokinetic evaluation of radiolabled CN-105 in uninjured, male CD-1 mice. After a single intravenous bolus dose of CN-105 (1.98 mg/kg), peak concentration of CN-105 in the spinal cord occurred 30 minutes post injection (FIG. 2, panel A).\nHowever, tissue retention of CN-105 at 24 hours (FIG. 2, panel B) and total exposure (FIG. 2, panel C) to CN-105 over 48 hours post injection was greatest in the spinal cord. Tissue retention at 24 hours post injection was quantified by dividing the CN-105 concentration at 24 hours (C24) by the peak CN-105 concentration (Cmax) and multiplying by 100.\nThe total exposure to CN-105 was calculated using the area under the curve (AUC) from the time of injection to 48 hours post injection (AUC0-48) and is expressed in nanogram equivalents*hour per gram. […] Increased CN-105 access to the spinal cord is consistent with greater passive permeability in the intact spinal cord (Winkler et al., 2012)."}, "[4]": {"target": "α7 nicotinic acetylcholine receptors (Homo sapiens, UniProt P36544)", "sequence (P36544 23-502)": "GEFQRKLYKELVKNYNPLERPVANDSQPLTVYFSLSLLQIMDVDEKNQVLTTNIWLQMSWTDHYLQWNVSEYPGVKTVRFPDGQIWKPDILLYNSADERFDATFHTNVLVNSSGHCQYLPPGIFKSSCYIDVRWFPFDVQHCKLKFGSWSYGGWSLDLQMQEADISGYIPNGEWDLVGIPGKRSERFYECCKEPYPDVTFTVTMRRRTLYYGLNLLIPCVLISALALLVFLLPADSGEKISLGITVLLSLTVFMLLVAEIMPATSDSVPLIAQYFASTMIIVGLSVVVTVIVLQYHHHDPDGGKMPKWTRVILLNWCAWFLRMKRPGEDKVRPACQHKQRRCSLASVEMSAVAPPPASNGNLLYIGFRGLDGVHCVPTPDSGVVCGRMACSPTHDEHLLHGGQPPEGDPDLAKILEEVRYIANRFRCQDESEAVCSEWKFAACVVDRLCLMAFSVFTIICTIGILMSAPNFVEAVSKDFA", "conditions": "cited from earlier work"}, "[5]": {"conditions": "SCI rats, 2.0 mg/kg chronic treatment, cystometry"}}}
{"substance": "Ac-ASHLRKLRKRLL-NH2 [AL-10-1]", "values": [{"measurement": "Neuroprotection (reduction in neuronal LDH release)", "setting": "mixed neuronal culture", "value": "−6.21", "unit": "%"}]}
{"substance": "Ac-RARRL-NH2 [RL-S-2]", "values": [{"measurement": "Neuroprotection (reduction in neuronal LDH release)", "setting": "mixed neuronal culture", "value": "−5.23", "unit": "%"}]}
{"substance": "Ac-RHKKL-NH2 [RL-S-1]", "values": [{"measurement": "Neuroprotection (reduction in neuronal LDH release)", "setting": "mixed neuronal culture", "value": "−2.85", "unit": "%"}]}
{"substance": "Ac-RHKRR-NH2 [RR-S-1]", "values": [{"measurement": "Neuroprotection (reduction in neuronal LDH release)", "setting": "mixed neuronal culture", "value": 7.5, "unit": "%"}]}
{"substance": "Ac-RSKKL-NH2 [RL-S-3]", "values": [{"measurement": "Neuroprotection (reduction in neuronal LDH release)", "setting": "mixed neuronal culture", "value": "−20.80", "unit": "%"}]}
{"substance": "Ac-RSKRR-NH2 [RR-S-2]", "values": [{"measurement": "Neuroprotection (reduction in neuronal LDH release)", "setting": "mixed neuronal culture", "value": 0.08, "unit": "%"}]}
{"substance": "Ac-VARKL-NH2 [VL-S-1]", "values": [{"measurement": "Neuroprotection (reduction in neuronal LDH release)", "setting": "mixed neuronal culture", "value": 24.48, "unit": "%"}]}
{"substance": "Ac-VARRL-NH2 [VL-S-3]", "values": [{"measurement": "Neuroprotection (reduction in neuronal LDH release)", "setting": "mixed neuronal culture", "value": 11.50, "unit": "%"}]}
{"substance": "Ac-VSKKR-NH2 [VR-54]", "values": [{"measurement": "Neuroprotection (reduction in neuronal LDH release)", "setting": "mixed neuronal culture", "value": "−15.91", "unit": "%"}]}
{"substance": "Ac-VSKRR-NH2 [VR-53]", "values": [{"measurement": "Neuroprotection (reduction in neuronal LDH release)", "setting": "mixed neuronal culture", "value": 7.03, "unit": "%"}]}
{"substance": "Ac-VSRKR-NH2 [VR-52]", "values": [{"measurement": "Neuroprotection (reduction in neuronal LDH release)", "setting": "mixed neuronal culture", "value": 12.63, "unit": "%"}]}
{"substance": "Ac-VSRRR-NH2 [CN-105]", "values": [{"measurement": "Suppression of LPS-induced inflammation (TNFα)", "setting": "mixed glial culture", "value": "suppress LPS-induced inflammation"}, {"measurement": "Sensory function / allodynia (von Frey hair test)", "setting": "[1]; 2.0 mg/kg", "value": "trend toward improved sensory function"}, {"measurement": "Animals capable of consistently taking weight-supported steps (BMS)", "setting": "[1]; 2.0 mg/kg IV 30 min, IP 3 h, 6 h, then every 24 h for three days, 21 days after injury, p<0.05", "value": "significantly more animals"}, {"measurement": "Animals performing coordinated locomotion (BMS)", "setting": "[1]; 2.0 mg/kg, 21 days after injury, p<0.05", "value": "significantly more animals"}, {"measurement": "Post-injury weight loss", "setting": "[2]; 2.0 mg/kg IV 30 min and 3 h, then IP every 24 h for 7 days", "value": "prevented post-injury weight loss"}, {"measurement": "Bladder capacity (BC)", "setting": "[2]; [5]", "value": "11.83 ± 2.00", "unit": "mL"}, {"measurement": "Non-voiding contractions (NVCs)", "setting": "[2]; [5]", "value": "8.0±2.48"}, {"measurement": "Voiding efficiency (VE)", "setting": "[2]; [5]", "value": "3.31±1.83", "unit": "%"}, {"measurement": "Bladder capacity after acute dosing", "setting": "[2]; acute dosing 2 mg/kg in chronically treated rats, p<0.05", "value": "may decrease bladder capacities"}, {"measurement": "Neurogenic detrusor overactivity (NDO), post-hoc analysis", "setting": "[2]; extended treatment, p<0.05", "value": "may decrease NDO"}, {"measurement": "Brain exposure relative to previous peptides", "setting": "acquired brain injury", "value": "up to five times higher than previous peptides"}, {"measurement": "Histological and behavioral outcomes following acquired brain injury", "setting": "acquired brain injury", "value": "improves both histological and behavioral outcomes"}, {"measurement": "Neuroprotection (reduction in neuronal LDH release)", "setting": "mixed neuronal culture", "value": 19.14, "unit": "%"}, {"measurement": "Lesion size and tissue damage (GFAP staining)", "setting": "severe, contusive SCI", "value": "appeared to reduce the lesion size and tissue damage"}, {"measurement": "Total exposure (AUC0-48), spinal cord vs brain", "setting": "[3]; 0-48 hours", "value": "spinal cord had greater total exposure to CN-105 than the brain"}, {"measurement": "Tissue retention at 24 hours (C24/Cmax x 100), spinal cord vs brain", "setting": "[3]; 24 hours post injection", "value": "spinal cord retained a higher percentage of CN-105 than the brain"}, {"measurement": "Time of peak concentration in the spinal cord", "setting": "[3]; spinal cord", "value": 30, "unit": "min"}, {"measurement": "Binding to α7 nicotinic acetylcholine receptors", "setting": "[4]", "value": "binds"}]}
